Test results taken from PMC10033419, “Blocking NS3–NS4B interaction inhibits dengue virus in non-human primates” (Nature, 2023).
Like-named read-outs stand apart in the source and are kept apart here.

What was measured:
[1] = system: DENV-2/16681/eGFP; test: microbe, parasite or virus in culture; type: cell-based; conditions: Dengue virus, DENV2, Vero
[2] = system: DENV-2 Asian America Martinique; type: cell-based; conditions: T108I in NS4B
[3] = system: DENV-1/45AZ5; test: NHP DENV-1 study, IgM/IgG ELISA; conditions: for IgG ELISA Titer / IgM ELISA Titer: Negative = 100

## COc1cc(N[C@H](C(=O)c2c[nH]c3ccc(OC(F)(F)F)cc23)c2ccc(Cl)cc2OC)cc(S(C)(=O)=O)c1 [JNJ-1802]
[1]; Vero with 50% HS, read-out: EC50, protein-binding-adjusted
  EC50: 1.4 nM
[1]; Vero with 50% HS, read-out: EC90, protein-binding-adjusted
  EC90: 4.8 ± 1.4 nM
[1]; Vero, mean ± s.d., read-out: EC50
  EC50: 0.059 ± 0.03 nM
[1]; Vero, read-out: EC90
  EC90: 0.161 ± 0.083 nM
[1]; two DENV-2 laboratory strains in Vero, Huh-7, C6/36, THP-1/DC-SIGN, read-out: mean EC50, range
  EC50: 0.059 to 1.24 nM
[2]
  EC50: 0.8 ± 0.7 nM
  EC90: 1.88 ± 1.37 nM
[3]; 6 mg per kg per day q.d.
  IgM and IgG responses: undetectable
[3]; animal R7, Day 0
  IgG ELISA Titer: 100
  IgM ELISA Titer: 100
[3]; animal R7, Day 5
  IgG ELISA Titer: 100
  IgM ELISA Titer: 100
[3]; animal R7, Day 7
  IgG ELISA Titer: 100
  IgM ELISA Titer: 100
[3]; animal R7, Day 9
  IgG ELISA Titer: 100
  IgM ELISA Titer: 100
[3]; animal R7, Day 11
  IgG ELISA Titer: 100
  IgM ELISA Titer: 100
[3]; animal R7, Day 14
  IgG ELISA Titer: 100
  IgM ELISA Titer: 100
[3]; animal R7, Day 29
  IgG ELISA Titer: 100
  IgM ELISA Titer: 100
[3]; animal R8, Day 0
  IgG ELISA Titer: 100
  IgM ELISA Titer: 100
[3]; animal R8, Day 5
  IgG ELISA Titer: 100
  IgM ELISA Titer: 100
[3]; animal R8, Day 7
  IgG ELISA Titer: 100
  IgM ELISA Titer: 100
[3]; animal R8, Day 9
  IgG ELISA Titer: 100
  IgM ELISA Titer: 100
[3]; animal R8, Day 11
  IgG ELISA Titer: 100
  IgM ELISA Titer: 100
[3]; animal R8, Day 14
  IgG ELISA Titer: 100
  IgM ELISA Titer: 100
[3]; animal R8, Day 29
  IgG ELISA Titer: 100
  IgM ELISA Titer: 100
[3]; animal R9, Day 0
  IgG ELISA Titer: 100
  IgM ELISA Titer: 100
[3]; animal R9, Day 5
  IgG ELISA Titer: 100
  IgM ELISA Titer: 100
[3]; animal R9, Day 7
  IgG ELISA Titer: 100
  IgM ELISA Titer: 100
[3]; animal R9, Day 9
  IgG ELISA Titer: 100
  IgM ELISA Titer: 100
[3]; animal R9, Day 11
  IgG ELISA Titer: 100
  IgM ELISA Titer: 100
[3]; animal R9, Day 14
  IgG ELISA Titer: 100
  IgM ELISA Titer: 100
[3]; animal R9, Day 29
  IgG ELISA Titer: 100
  IgM ELISA Titer: 100
[3]; animal R10, Day 0
  IgG ELISA Titer: 100
  IgM ELISA Titer: 100
[3]; animal R10, Day 5
  IgG ELISA Titer: 100
  IgM ELISA Titer: 100
[3]; animal R10, Day 7
  IgG ELISA Titer: 100
  IgM ELISA Titer: 100
[3]; animal R10, Day 9
  IgG ELISA Titer: 100
  IgM ELISA Titer: 100
[3]; animal R10, Day 11
  IgG ELISA Titer: 100
  IgM ELISA Titer: 100
[3]; animal R10, Day 14
  IgG ELISA Titer: 100
  IgM ELISA Titer: 100
[3]; animal R10, Day 29
  IgG ELISA Titer: 100
  IgM ELISA Titer: 100
[3]; animal R11, Day 0
  IgG ELISA Titer: 100
  IgM ELISA Titer: 100
[3]; animal R11, Day 5
  IgG ELISA Titer: 100
  IgM ELISA Titer: 100
[3]; animal R11, Day 7
  IgG ELISA Titer: 100
  IgM ELISA Titer: 100
[3]; animal R11, Day 9
  IgG ELISA Titer: 100
  IgM ELISA Titer: 100
[3]; animal R11, Day 11
  IgG ELISA Titer: 100
  IgM ELISA Titer: 100
[3]; animal R11, Day 14
  IgG ELISA Titer: 100
  IgM ELISA Titer: 100
[3]; animal R11, Day 29
  IgG ELISA Titer: 100
  IgM ELISA Titer: 100
[3]; animal R12, Day 0
  IgG ELISA Titer: 100
  IgM ELISA Titer: 100
[3]; animal R12, Day 5
  IgG ELISA Titer: 100
  IgM ELISA Titer: 100
[3]; animal R12, Day 7
  IgG ELISA Titer: 100
  IgM ELISA Titer: 100
[3]; animal R12, Day 9
  IgG ELISA Titer: 100
  IgM ELISA Titer: 100
[3]; animal R12, Day 11
  IgG ELISA Titer: 100
  IgM ELISA Titer: 100
[3]; animal R12, Day 14
  IgG ELISA Titer: 100
  IgM ELISA Titer: 100
[3]; animal R12, Day 29
  IgG ELISA Titer: 100
  IgM ELISA Titer: 100
